Measured values as given in US20230352136A1, “SYSTEMS AND METHODS TO EVALUATE DRUG-INDUCED GASTROINTESTINAL DYSRHYTHMIA” (The Chinese University of Hong Kong, priority 2022, published 2023).

System: ileum pacemaker potentials
Test: MEA recording of pacemaker potentials (slow waves), isolated ileum
Assay type: cell-based, Suncus murinus
Settings: ileal tissues
Method: Pacemaker potentials were recorded extracellularly on a 60-channel MEA system using full-thickness GI segments isolated from Suncus murinus. Basic slow-wave parameters, including frequency, amplitude, slope, period, and power partitions, were derived. Signal regularity was also evaluated using detrended fluctuation analysis and sample entropy analysis.
Electrical recordings were taken after the animals were euthanised by carbon dioxide asphyxiation. […] The mesentery was removed, and the lumen contents were flushed with Krebs' medium. Segments (−1 cm) of duodenum, ileum, and colon were then isolated, but the stomach was kept intact. All tissue segments and the entire stomach were incubated in Krebs' medium containing nifedipine (1 μM; Sigma Aldrich, St Louis, MO, USA) for 15 min to inhibit smooth muscle activity. Pacemaker potentials were recorded using an MEA platform (MEA1060 1200×; Multichannel Systems, Reutlingen, Germany) as previously described. Briefly, tissues were placed onto the electrode field of an MEA chip (60-channel, 8×8 configuration, 3D-tip-shaped electrodes with a height of […] and an inter-electrode distance of 200 μm; Ayanda Biosystems SA, Lausanne, Switzerland). Intestinal segments were aligned horizontally to the recording electrode field, while the stomach was oriented with the antrum facing the recording electrode field. The chamber temperature was maintained at 37° C. and the sampling frequency was 1 kHz. […] All data were recorded and saved using MC_Rack (v 4.6.2, Multichannel Systems).
Data analysis included basic slow-wave feature extraction using a custom automated program. […] The time point of drug administration was automatically identified based on the signal disturbance. The period of signal disturbance (20 s before and 40 s after the peak of the disturbance) was excluded from the analysis. Data were filtered using a passband between 0.1 Hz and 1 Hz and a stopband between 0.01 Hz and 2 Hz. The basic slow-wave features extracted were similar to those extracted in the inventors' previous studies. However, instead of using several templates and scripts written in Microsoft Excel and Spike 2, a one-step automatic and blinded MATLAB programme was used for data analysis. There were four major changes to the data analysis process as compared to the inventors' previous studies. First, auto-identification of the drug disturbance time point was used, rather than manual identification. Second, standardised signal filters were built in MATLAB to match the entire data analysis pipeline. […] Frequency partitioning was performed by segmenting the power spectrum of 0-50 cpm into the following four segments: brady-rhythm (within the range 2-[DF−1] cpm), normal-rhythm ([DF±1] cpm), tachy-rhythm (within the range [DF+1]-40 cpm), and out-of-range frequencies (<2 cpm and >40 cpm). Third, waveforms were identified using the MATLAB ‘findpeaks’ function, with a minimum peak height of […] at baseline and […] after drug treatment, with a step time of 5.4 s for the intestine and 12 s for the stomach. The average peak-to-peak amplitude, slope, and period were derived for all detected waveforms. Fourth, propagation velocity was derived using phase-difference measurements, based on the auto-select seed electrode with the highest percentage of normal rhythms.
Dominant activation pattern identification included a phase-based analysis performed as previously described (Liu et al., 2021). Briefly, high-frequency spikes with amplitudes greater than […] were masked. Continuous frequencies were identified using continuous wavelet transformation, and the transformed data were used to plot spectrograms. […] High quality data were subjected to Hilbert transformation to identify the phase and frequency of the signals. Individual activation times were clustered using k-means clustering every 20 s and major activation patterns were grouped using a structural similarity index.

With `Cl.NCCc1ccc(O)c(O)c1` [dopamine, 3-Hydroxytyramine hydrochloride] as the molecule, how does the “DFA fluctuation function (larger scale 26-46)” value (100 nM, baseline 1.71±0.17, p<0.05, n=6) read?
The value was 1.55±0.13.

What about the “DFA fluctuation function (smaller scale 3-25)” value (100 nM, baseline 2.35±0.14, p<0.05, n=6) of the same molecule?
The value was 2.28±0.11.

What about the waveform period (100 nM, baseline 2.66±0.40, p<0.05, n=7) of the same molecule?
The waveform period was 3.73±1.05.

What about the “percentage of dominant patterns (based on post-treatment data, FIG. 3E), second pattern” value (100 nM, baseline 15.6±10.3, p<0.05, n=7) of the same molecule?
The value was 4.2±4.2%.

And the “percentage of dominant patterns (based on post-treatment data, FIG. 3E), third pattern” value (100 nM, baseline 16.8±6.6, p<0.01, n=7)?
The value was 3.0±2.6%.

What about the “percentage of dominant baseline activation patterns, third pattern” value (100 nM, baseline 17.2±4.8, p<0.0001, n=7) of the same molecule?
Its value is 2.2±2.6%.

What about the “percentage of dominant baseline activation patterns, second pattern” value (100 nM, baseline 21.5±1.7, p<0.0001, n=7) of the same molecule?
The value was 2.6±1.6%.

And the “average frequency (AF)” value (100 nM, baseline 23.5±3.0, p<0.05, n=7)?
Its value is 19.4±3.6 cpm.

And the percentage of brady-rhythms (100 nM, baseline 31.8±11.7, p<0.05, n=7)?
Its percentage of brady-rhythms is 60.0±26.0%.

What about the “percentage of dominant baseline activation patterns, first pattern” value (100 nM, baseline 32.8±5.7, p<0.01, n=7) of the same molecule?
Its value is 3.8±4.5%.

And the “percentage of normal rhythms” value (100 nM, baseline 46.1±5.6, p<0.01, n=7)?
The value was 4.8±17.0%.

And the “amplitude of slow waves” value (100 nM, baseline 165.2±20.5, p<0.001, n=7)?
The value was 119.2±20.0 μV.

What about the slope of waveforms (100 nM, baseline 257.5±59.8, p<0.01, n=7) of the same molecule?
The slope of waveforms was 160.1±42.0 μV s^−1.

What about the “dominant power (DP) of slow waves” value (100 nM, baseline 780.4±276.9, p<0.001, n=7) of the same molecule?
The value was 177.5±83.0 μV^2.

And the “DFA fluctuation function (larger scale 26-46)” value (1 μM, baseline 1.78±0.24, p<0.05, n=8)?
Its value is 1.64±0.28.

And the “number of groups of activation patterns” value (1 μM, baseline 6.3±0.8, p<0.05, n=7)?
The value was 7±0.8.

What about the “percentage of dominant patterns (based on post-treatment data, FIG. 3E), first pattern” value (1 μM, baseline 8.9±9.0, p<0.01, n=6) of the same molecule?
Its value is 31.4±13.7%.

And the percentage of brady-rhythms (1 μM, baseline 27.5±7.8, p<0.05, n=7)?
Its percentage of brady-rhythms is 46.3±22.7%.

And the “percentage of dominant baseline activation patterns, first pattern” value (1 μM, baseline 35.2±6.0, p<0.001, n=6)?
Its value is 13.0±6.7%.

What about the “percentage of normal rhythms” value (1 μM, baseline 50.6±10.8, p<0.01, n=7) of the same molecule?
The value was 24.5±11.8%.

What about the “amplitude of slow waves” value (1 μM, baseline 187.1±76.9, p<0.01, n=7) of the same molecule?
Its value is 138.0±66.2 μV.

What about the slope of waveforms (1 μM, baseline 300.9±117.5, p<0.01, n=7) of the same molecule?
Its slope of waveforms is 204.4±91.9 μV s^−1.

And the “dominant power (DP) of slow waves” value (1 μM, baseline 1,070.5±745.1, p<0.05, n=7)?
The value was 460.3±297.0 μV^2.

And the “representative spectrogram (left), effect on DF” value (10 μM)?
Its value is “slightly shifted towards a higher frequency”.

And the “representative spectrogram (right), effect” value (10 μM)?
Its value is “extra peaks appearing to the left of the baseline DF”.

What about the “wave fronts counted in representative spatio-temporal map (1 min)” value (10 μM, 26 before treatment) of the same molecule?
Its value is 30.

What about the waveform period (10 μM, baseline 2.30±0.18, p<0.05, n=6) of the same molecule?
Its waveform period is 3.05 ± 0.68 s.

And the “number of groups of activation patterns” value (10 μM, baseline 9.3±0.7, p<0.05, n=6)?
The value was 6.9±1.0.

What about the “percentage of dominant patterns (based on post-treatment data, FIG. 3E), first pattern” value (10 μM, baseline 17.2±11.5, p<0.05, n=5) of the same molecule?
Its value is 32.3±13.2%.

And the percentage of brady-rhythms (10 μM, baseline 32.8±12.9, p<0.05, n=6)?
Its percentage of brady-rhythms is 63.3±28.5%.

What about the “percentage of dominant baseline activation patterns, first pattern” value (10 μM, baseline 35.7±8.4, p<0.05, n=5) of the same molecule?
The value was 19.2±16.4%.

What about the “percentage of normal rhythms” value (10 μM, baseline 50.9±9.8, p<0.0001, n=6) of the same molecule?
The value was 9.2±10.9%.

What about the “amplitude of slow waves” value (10 μM, baseline 229.6±115.9, p<0.05, n=6) of the same molecule?
The value was 149.1±56.7 μV.

What about the slope of waveforms (10 μM, baseline 383.7±185.8, p<0.05, n=6) of the same molecule?
Its slope of waveforms is 238.2±95.7 μV s^−1.

And the “DFA fluctuation function (larger scale 26-46)” value (100 μM, baseline 1.63±0.23, p<0.05, n=7)?
Its value is 1.43±0.21.

What about the “DFA fluctuation function (smaller scale 3-25)” value (100 μM, baseline 2.35±0.12, p<0.05, n=7) of the same molecule?
The value was 2.25±0.05.

And the “percentage of dominant patterns (based on post-treatment data, FIG. 3E), third pattern” value (100 μM, baseline 17.8±7.4, p<0.05, n=4)?
Its value is 6.8±6.1%.

What about the “percentage of dominant baseline activation patterns, third pattern” value (100 μM, baseline 19.1±2.8, p<0.01, n=4) of the same molecule?
The value was 5.9±6.6%.

What about the “percentage of dominant baseline activation patterns, second pattern” value (100 μM, baseline 23.5±2.8, p<0.001, n=4) of the same molecule?
The value was 5.7±5.1%.

What about the “percentage of dominant baseline activation patterns, first pattern” value (100 μM, baseline 27.6±4.1, p<0.01, n=4) of the same molecule?
Its value is 9.4±9.5%.

And the “dominant frequency (DF), change vs baseline” value (0.1-100 μM, p>0.05, n=6-7)?
Its value is “No significant differences”.

And the “propagation velocities, effect” value (0.1-100 μM, p>0.05, n=6-7)?
Its value is “did not affect”.

What about the “average SampEn (larger scale 6-50), effect” value (0.1-100 μM, p>0.05, n=6-8) of the same molecule?
Its value is “did not change”.

And the “average SampEn (smaller scale 1-5), effect” value (0.1-100 μM, p>0.05, n=6-8)?
Its value is “did not change”.

What about the “DFA fluctuation function (smaller scale 3-25)” value (1 M, baseline 2.29±0.23, p<0.05, n=8) of the same molecule?
Its value is 2.19±0.20.

And the waveform period (1 M, baseline 2.53±0.50, p<0.05, n=7)?
Its waveform period is 3.10 ± 0.74 s.

And the “DFA fluctuation function (smaller scale 3-25)” value (10 M, baseline 2.24±0.32, p<0.05, n=8)?
The value was 2.13±0.34.
